These results are taken from US9579325B2, “Modulators of TNF-α signaling” (Genzyme Corporation, priority 2000, dated 2017).

The structures appear in SMILES notation.

The experiment has as its system L929 cells. Briefly: TNF High Throughput Screen (TNF-α driven apoptosis assay). The format is cell-based, mouse. The conditions noted are these: Mus musculus, human TNF-α + actinomycin D, read-out: TNFα IC50. An excerpt:
Description of Table V: The results shown in Table V were obtained using the TNF-α assays performed as described in the protocols entitled “Method for TNF High Throughput Screen” and “Method for VCAM High Throughput Screen”, which are detailed below. These assays measure a cellular response to TNF-α stimulation, and the data published in the table are expressed as percentage inhibitions. Percentage inhibition is computed on a scale of 0 to 100% where 0 percent inhibition means the compound has no effect in the assay (the response is indistinguishable from TNF-α treatment alone), and 100% inhibition means that when the compound is present at the stated concentration, the response in the assay is the same as if TNF-α were not added. These two assays measure two different outcomes of TNF-α treatment, cell death and Vascular Cell Adhesion Molecule (VCAM) expression, and capture two of TNF-α's many biological effects. TNF-α induced apoptosis is a mechanism by which TNF-α production during immune/inflammatory responses can lead to direct cellular and tissue damage. TNF-α VCAM expression in endothelial cells is a response that allows leukocytes to leave the blood and enter a site of immune/inflammatory response. Both of these activities could lead to pathology in immune/inflammatory diseases. In the first column of the table, the percentage inhibition of the TNF-α driven apoptosis assay when the compounds are tested at 1 μM concentration is presented. The second column in the table lists the IC50 for the compound, a standard measure using a dilution series in the assay, and fitting a sigmoidal curve to the resulting dose-response curve. The IC50 is the concentration (derived analytically from the sigmoidal function) at which the compound would inhibit 50% of the response in the assay. The third and fourth column list the corresponding analysis for the TNF-α driven VCAM assay. In Table VI, data corresponding to the data in column 1 of Table V is shown, with human cells replacing the mouse cells used in the high throughput screen. […] As a consequence, the compounds will have use in treating more than one TNF-α mediated condition, and may be selected according to the manner in which the condition manifests. This corresponds to the use of these compounds in the treatment of human disease.
TNF High Throughput Screen.
• 1. Plate 4×10^4 L929 cells in 100 μl of complete EMEM in Costar 96 well plates in PM. • 2. The next day, pretreat with compound, inhibitor and control vehicle for 2 hours. • 3. After 2 hours pretreatment, add 10 μl 5 ng/ml human TNF-α and actinomycin D (40 μg/ml final concentration). • 4. Incubate overnight. • 5. In AM, remove supernatant. • 6. Wash on a plate washer (0.9% NaCl). • 7. Add 100 μl Crystal Violet 0.1% in 20% ETOH. • 8. Incubate at RT for 10 minutes. • 9. Wash on plate washer. • 10. Air dry wells at 37° C. • 11. Add 100 μl of methanol to each well. • 12. Shake plates on orbital shaker and read at 595 nm on plate reader. VCAM High Throughput Screen: Protocol: • 1. Plate Primary human umbilical vein endothelial cells at 1.8×10^4 cells/well in a 96-well tissue culture plate. • 2. Return Plates to 37° C. incubator for 48-72 hours before assay. • 3. On assay day, aspirate wells and add 1804, of endothelial growth cell medium (EGM) to each well. • 4. Add Compound to each well. • 5. Shake plates for 3 minutes. • 6. Incubate plate for 1 hour at 37° C. • 7. Add Tumor Necrosis Factor (TNF) at 1.0 ng/ml final concentration. • 8. Shake plates for 3 minutes. • 9. Incubate plate for 2 hours at 37° C. • 10. Remove plate from incubator and wash plate 3 times with phosphate buffered saline (PBS) using a plate washer. • 11. Add anti-VCAM antibody at 0.5 μg/ml final concentration. • 12. Incubate at 4° C. overnight. • 13. Wash 3 times with PBS on plate washer. • 14. Add goat anti-mouse horseradish peroxidase conjugate. • 15. Incubate at room temperature for one hour. • 16. Wash 3 times with PBS on plate washer. • 17. […]
One may read the IC50 as the concentration at which inhibition is half-maximal. As to `N#Cc1cccc(C(C(=O)NCCc2ccccc2)N(CCc2c[nH]cn2)C(=O)c2ccccc2C(=O)c2ccccc2)c1` (stereo not shown) [Compound 1], the half-maximal inhibitory concentration (IC50) is 2640 nM. Consider `N#Cc1cccc(C(C(=O)NC(c2ccccc2)c2ccccc2)N(CCc2c[nH]cn2)C(=O)c2ccccc2C(=O)c2ccccc2)c1` (stereo not shown) [Compound 2], for which the IC50 came to 5650 nM. For `N#Cc1cccc(C(C(=O)NC(Cc2ccccc2)c2ccccc2)N(CCc2c[nH]cn2)C(=O)c2ccccc2C(=O)c2ccccc2)c1` (stereo not shown) [Compound 3], the half-inhibitory concentration (IC50) was 1290 nM. Regarding `N#Cc1cccc(C(C(=O)NCCC(c2ccccc2)c2ccccc2)N(CCc2c[nH]cn2)C(=O)c2ccccc2C(=O)c2ccccc2)c1` (stereo not shown) [Compound 4], the 50% inhibitory concentration (IC50) stood at 941 nM. As for `O=C(c1ccccc1)c1ccccc1C(=O)N(CCc1c[nH]cn1)C(C(=O)NCC(c1ccccc1)c1ccccc1)c1ccccc1` (stereo not shown) [Compound 5, 2-Benzoyl-N-[(2,2-diphenyl-ethylcarbamoyl)-phenyl-methyl]-N-[2-(1H-imidazol-4-yl)-ethyl]-benzamide], the IC50 was 872 nM. Take `Cc1ccccc1C(C(=O)NCC(c1ccccc1)c1ccccc1)N(CCc1c[nH]cn1)C(=O)c1ccccc1C(=O)c1ccccc1` (stereo not shown) [Compound 6]: the IC50 came to 1060 nM. For the compound `Cc1cccc(C(C(=O)NCC(c2ccccc2)c2ccccc2)N(CCc2c[nH]cn2)C(=O)c2ccccc2C(=O)c2ccccc2)c1` (stereo not shown) [Compound 7], the IC50 was 4010 nM. Then `Cc1ccc(C(C(=O)NCC(c2ccccc2)c2ccccc2)N(CCc2c[nH]cn2)C(=O)c2ccccc2C(=O)c2ccccc2)cc1` (stereo not shown) [Compound 8], with 1620 nM; and `CN(C)CCN(C(=O)c1ccccc1C(=O)c1ccccc1)C(C(=O)NCC(c1ccccc1)c1ccccc1)c1cccc(C#N)c1` (stereo not shown) [Compound 9], with 496 nM. For `N#Cc1cccc(C(C(=O)NCC(c2ccccc2)c2ccccc2)N(CCc2c[nH]cn2)C(=O)c2ccccc2Cc2ccccc2)c1` (stereo not shown) [Compound 10], the half-maximal inhibitory concentration (IC50) amounted to 3680 nM. In the case of `N#Cc1cccc(C(C(=O)NCC(c2ccccc2)c2ccccc2)N(CCN2CCOCC2)C(=O)c2ccccc2C(=O)c2ccccc2)c1` (stereo not shown) [Compound 11], the concentration for half-maximal inhibition (IC50) turned out to be 2890 nM. As to `CSc1ccc(C(C(=O)NCC(c2ccccc2)c2ccccc2)N(CCc2c[nH]cn2)C(=O)c2ccccc2C(=O)c2ccccc2)cc1` (stereo not shown) [Compound 12], the IC50 came out at 5150 nM. For `Cn1cnc(CCN(C(=O)c2ccccc2C(=O)c2ccccc2)C(C(=O)NCC(c2ccccc2)c2ccccc2)c2cccc(C#N)c2)c1` (stereo not shown) [Compound 13] the value was 1370 nM.

As to `Cn1cncc1CCN(C(=O)c1ccccc1C(=O)c1ccccc1)C(C(=O)NCC(c1ccccc1)c1ccccc1)c1cccc(C#N)c1` (stereo not shown) [Compound 14], the IC50 stood at 1790 nM. Then `N#Cc1cccc(C(C(=O)NCC(c2ccccc2)c2ccccc2)N(CCc2c[nH]cn2)C(=O)c2ccccc2C(=O)c2ccccn2)c1` (stereo not shown) [Compound 15], with 386 nM; and `O=C(c1ccccc1)c1ccccc1C(=O)N(CCc1c[nH]cn1)C(C(=O)NCC(c1ccccc1)c1ccccc1)c1cccc(Cl)c1` (stereo not shown) [Compound 16], with 1320 nM; and `O=C(c1ccccc1)c1ccccc1C(=O)N(CCc1c[nH]cn1)C(C(=O)NCC(c1ccccc1)c1ccccc1)c1cccc(C(F)(F)F)c1` (stereo not shown) [Compound 17], with 1500 nM.

Turning to `COc1ccc(CCNC(=O)C(c2cccc(C#N)c2)N(CCc2c[nH]cn2)C(=O)c2ccccc2C(=O)c2ccccc2)cc1` (stereo not shown) [Compound 18], the IC50 is 2680 nM. On to `COc1ccc(C(=O)c2ccccc2C(=O)N(CCc2c[nH]cn2)C(C(=O)NCC(c2ccccc2)c2ccccc2)c2cccc(C#N)c2)cc1` (stereo not shown) [Compound 19], for which the IC50 came out at 457 nM. Then `N#Cc1cccc(C(C(=O)NCC(c2ccccc2)c2ccccc2)N(CCc2c[nH]cn2)C(=O)c2ccccc2C(=O)c2ccc(Cl)cc2)c1` (stereo not shown) [Compound 20], with 299 nM. For the compound `N#Cc1cccc(C(C(=O)NCC(c2ccccc2)c2ccccc2)N(CCn2ccnc2)C(=O)c2ccccc2C(=O)c2ccccc2)c1` (stereo not shown) [Compound 21], the IC50 came out at 913 nM. Consider `N#Cc1cccc(C(C(=O)NCC(c2ccccc2)c2ccccc2)N(CCc2c[nH]cn2)C(=O)c2ccccc2-c2ccco2)c1` (stereo not shown) [Compound 22], for which the IC50 is 3850 nM.

Turning to `N#Cc1cccc(C(C(=O)NCC(C2CCCCC2)C2CCCCC2)N(CCc2c[nH]cn2)C(=O)c2ccccc2C(=O)c2ccccc2)c1` (stereo not shown) [Compound 23], the 50% inhibitory concentration (IC50) came to 2580 nM. For `N#Cc1cccc(C(C(=O)NCC(c2ccccc2)c2ccccc2)N(CCCc2c[nH]cn2)C(=O)c2ccccc2C(=O)c2ccccc2)c1` (stereo not shown) [Compound 24], the half-inhibitory concentration (IC50) was found to be 1030 nM. For `N#Cc1cccc(C(C(=O)NCC(c2ccccc2)C2CCCC2)N(CCc2c[nH]cn2)C(=O)c2ccccc2C(=O)c2ccccc2)c1` (stereo not shown) [Compound 25] the value was 1580 nM. For `CN(CC(c1ccccc1)c1ccccc1)C(=O)C(c1ccccc1)N(CCc1c[nH]cn1)C(=O)c1ccccc1C(=O)c1ccccc1` (stereo not shown) [Compound 26, 2-Benzoyl-N-{[(2,2-diphenyl-ethyl)-methyl-carbamoyl]-phenyl-methyl}-N-[2-(1H-imidazol-4-yl)-ethyl]-benzamide] the value was 3360 nM; for `O=C(c1ccccc1)c1ccccc1C(=O)N(CCc1c[nH]cn1)C(Cc1ccccc1C(F)(F)F)C(=O)NCC(c1ccccc1)c1ccccc1` (stereo not shown) [Compound 27], 2720 nM. As to `O=C(c1ccccc1)c1ccccc1C(=O)N(CCc1c[nH]cn1)C(Cc1cccc(C(F)(F)F)c1)C(=O)NCC(c1ccccc1)c1ccccc1` (stereo not shown) [Compound 28], the half-maximal inhibitory concentration (IC50) is 5270 nM.

For `N#Cc1cccc(C(C(=O)NCC(c2ccccc2)c2ccccc2)N(CCc2c[nH]cn2)C(=O)c2ccccc2-c2cccs2)c1` (stereo not shown) [Compound 29], the half-maximal inhibitory concentration (IC50) stood at 3720 nM.

In the case of `O=C(c1ccccc1)c1ccccc1C(=O)N(CCc1c[nH]cn1)C(Cc1ccccc1Cl)C(=O)NCC(c1ccccc1)c1ccccc1` (stereo not shown) [Compound 30], the 50% inhibitory concentration (IC50) amounted to 2360 nM. For `O=C(c1ccccc1)c1ccccc1C(=O)N(CCc1c[nH]cn1)C(Cc1cccc(Cl)c1)C(=O)NCC(c1ccccc1)c1ccccc1` (stereo not shown) [Compound 31] the value was 3350 nM; for `O=C(c1ccccc1)c1ccccc1C(=O)N(CCc1c[nH]cn1)C(Cc1ccc(Cl)cc1)C(=O)NCC(c1ccccc1)c1ccccc1` (stereo not shown) [Compound 32], 2330 nM; for `COc1ccccc1CC(C(=O)NCC(c1ccccc1)c1ccccc1)N(CCc1c[nH]cn1)C(=O)c1ccccc1C(=O)c1ccccc1` (stereo not shown) [Compound 33], 2350 nM.

Turning to `COc1cccc(CC(C(=O)NCC(c2ccccc2)c2ccccc2)N(CCc2c[nH]cn2)C(=O)c2ccccc2C(=O)c2ccccc2)c1` (stereo not shown) [Compound 34], the half-maximal inhibitory concentration (IC50) was 1540 nM. For the compound `COc1ccc(CC(C(=O)NCC(c2ccccc2)c2ccccc2)N(CCc2c[nH]cn2)C(=O)c2ccccc2C(=O)c2ccccc2)cc1` (stereo not shown) [Compound 35], the half-maximal inhibitory concentration (IC50) was found to be 2640 nM. For `O=C(c1ccccc1)c1ccccc1C(=O)N(CCc1c[nH]cn1)C(Cc1ccccc1F)C(=O)NCC(c1ccccc1)c1ccccc1` (stereo not shown) [Compound 36] the value was 2150 nM. As to `O=C(c1ccccc1)c1ccccc1C(=O)N(CCc1c[nH]cn1)C(Cc1cccc(F)c1)C(=O)NCC(c1ccccc1)c1ccccc1` (stereo not shown) [Compound 37], the IC50 is 2360 nM. `O=C(c1ccccc1)c1ccccc1C(=O)N(CCc1c[nH]cn1)C(Cc1ccc(F)cc1)C(=O)NCC(c1ccccc1)c1ccccc1` (stereo not shown) [Compound 38]: the IC50 is 2790 nM. `N#Cc1cccc(C(C(=O)NCC(c2ccccc2)c2ccccn2)N(CCc2c[nH]cn2)C(=O)c2ccccc2C(=O)c2ccccc2)c1` (stereo not shown) [Compound 39]: the 50% inhibitory concentration (IC50) came to 1320 nM. Consider `[N-]=[N+]=Nc1cccc(C(C(=O)NCC(c2ccccc2)c2ccccc2)N(CCc2c[nH]cn2)C(=O)c2ccccc2C(=O)c2ccccc2)c1` (stereo not shown) [Compound 40], for which the IC50 was 1740 nM.
